Measurements from PubChem BioAssay AID1963973 (Molecular Pharmacology Branch, DTP, NCI, 2024).

Tested on: 883617-216-R-J1-PDC tumor spheroids, viability
Assay: Anticancer human tumor 883617-216-R-J1-PDC patient-derived bladder carcinoma cell line growth inhibition [PI3K]
Conditions: spheroids with HUVEC and MSC; for IC50: curve of first compound; for viability, T/C: stronger effect = lower value
Summary of the method: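 Spheroid viability read-out. Co-cultures contained the tumor line plus HUVEC and human MSCs. Each agent was paired with a PI3K inhibitor (inavolisib, alpelisib, duvelisib, copanlisib) across half-log dilutions starting at clinical Cmax, or at 10 microM when Cmax was unknown.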

[1] = second compound 0.0316 µM, first compound 0.0316 µM
[2] = second compound 0.0316 µM, first compound 0.1 µM
[3] = second compound 0.0316 µM, first compound 0.316 µM
[4] = second compound 0.0316 µM, first compound 1 µM
[5] = second compound 0.0316 µM, first compound 3.16 µM
[6] = second compound 0.0316 µM, first compound 10 µM
[7] = second compound 0.1 µM, first compound 0.0316 µM
[8] = second compound 0.1 µM, first compound 0.1 µM
[9] = second compound 0.1 µM, first compound 0.316 µM
[10] = second compound 0.1 µM, first compound 1 µM
[11] = second compound 0.1 µM, first compound 3.16 µM
[12] = second compound 0.1 µM, first compound 10 µM
[13] = second compound 0.316 µM, first compound 0.0316 µM
[14] = second compound 0.316 µM, first compound 0.1 µM
[15] = second compound 0.316 µM, first compound 0.316 µM
[16] = second compound 0.316 µM, first compound 1 µM
[17] = second compound 0.316 µM, first compound 3.16 µM
[18] = second compound 0.316 µM, first compound 10 µM
[19] = second compound 1 µM, first compound 0.0316 µM
[20] = second compound 1 µM, first compound 0.1 µM
[21] = second compound 1 µM, first compound 0.316 µM
[22] = second compound 1 µM, first compound 1 µM
[23] = second compound 1 µM, first compound 3.16 µM
[24] = second compound 1 µM, first compound 10 µM
[25] = second compound 3.16 µM, first compound 0.0316 µM
[26] = second compound 3.16 µM, first compound 0.1 µM
[27] = second compound 3.16 µM, first compound 0.316 µM
[28] = second compound 3.16 µM, first compound 1 µM
[29] = second compound 3.16 µM, first compound 3.16 µM
[30] = second compound 3.16 µM, first compound 10 µM
[31] = second compound 10 µM, first compound 0.0316 µM
[32] = second compound 10 µM, first compound 0.1 µM
[33] = second compound 10 µM, first compound 0.316 µM
[34] = second compound 10 µM, first compound 1 µM
[35] = second compound 10 µM, first compound 3.16 µM
[36] = second compound 10 µM, first compound 10 µM
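Further: spheroids exposed to agents for 7 days before the viability read.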

C=CC(=O)N1CCN(c2nc(=O)n(-c3c(C)ccnc3C(C)C)c3nc(-c4c(O)cccc4F)c(F)cc23)C(C)C1 (stereo unspecified) + CC(Nc1ncnc2nc[nH]c12)c1cc2cccc(Cl)c2c(=O)n1-c1ccccc1
IC50 (second compound 0.0316 µM): > 10 µM | IC50 (second compound 0.1 µM): > 10 µM | IC50 (second compound 0.316 µM): < 0.0316 µM | IC50 (second compound 1 µM): 0.0739 µM | IC50 (second compound 3.16 µM): < 0.0316 µM | IC50 (second compound 10 µM): < 0.0316 µM | viability, T/C [1]: 59.4% | viability, T/C [2]: 41.1% | viability, T/C [3]: 49.5% | viability, T/C [4]: 55.3% | viability, T/C [5]: 59.9% | viability, T/C [6]: 64.2% | viability, T/C [7]: 60.9% | viability, T/C [8]: 46.9% | viability, T/C [9]: 48.4% | viability, T/C [10]: 57.9% | viability, T/C [11]: 63.4% | viability, T/C [12]: 62% | viability, T/C [13]: 55.9% | viability, T/C [14]: 43.4% | viability, T/C [15]: 40.8% | viability, T/C [16]: 59.1% | viability, T/C [17]: 48.7% | viability, T/C [18]: 54.8% | viability, T/C [19]: 63.3% | viability, T/C [20]: 45.2% | viability, T/C [21]: 43% | viability, T/C [22]: 45.7% | viability, T/C [23]: 37.1% | viability, T/C [24]: 45.6% | viability, T/C [25]: 43.2% | viability, T/C [26]: 36.2% | viability, T/C [27]: 27.2% | viability, T/C [28]: 37.5% | viability, T/C [29]: 37.6% | viability, T/C [30]: 45.4% | viability, T/C [31]: 26.1% | viability, T/C [32]: 20.1% | viability, T/C [33]: 19.6% | viability, T/C [34]: 21.9% | viability, T/C [35]: 28.8% | viability, T/C [36]: 31.7%

CC(Cn1ccc(-c2ccc(C#N)c(Cl)c2)n1)NC(=O)c1cc(C(C)O)[nH]n1 (stereo unspecified) + CC(Nc1ncnc2nc[nH]c12)c1cc2cccc(Cl)c2c(=O)n1-c1ccccc1
IC50 (second compound 0.0316 µM): > 10 µM | IC50 (second compound 0.1 µM): > 10 µM | IC50 (second compound 0.316 µM): > 10 µM | IC50 (second compound 1 µM): > 10 µM | IC50 (second compound 3.16 µM): > 10 µM | IC50 (second compound 10 µM): < 0.0316 µM | viability, T/C [1]: 98.1% | viability, T/C [2]: 104% | viability, T/C [3]: 90.5% | viability, T/C [4]: 103% | viability, T/C [5]: 103% | viability, T/C [6]: 95.3% | viability, T/C [7]: 94.5% | viability, T/C [8]: 84.7% | viability, T/C [9]: 84.6% | viability, T/C [10]: 100% | viability, T/C [11]: 95.3% | viability, T/C [12]: 97% | viability, T/C [13]: 95.8% | viability, T/C [14]: 92.9% | viability, T/C [15]: 90.7% | viability, T/C [16]: 97.9% | viability, T/C [17]: 95.5% | viability, T/C [18]: 90.7% | viability, T/C [19]: 78.3% | viability, T/C [20]: 77.1% | viability, T/C [21]: 78.3% | viability, T/C [22]: 86.9% | viability, T/C [23]: 90.8% | viability, T/C [24]: 76.8% | viability, T/C [25]: 76.7% | viability, T/C [26]: 70.9% | viability, T/C [27]: 61.2% | viability, T/C [28]: 61% | viability, T/C [29]: 68.1% | viability, T/C [30]: 74.2% | viability, T/C [31]: 52.9% | viability, T/C [32]: 43.1% | viability, T/C [33]: 44.6% | viability, T/C [34]: 51.4% | viability, T/C [35]: 43.7% | viability, T/C [36]: 50%

Cn1nccc1Nc1nccc(-c2ccn(C(CO)c3ccc(Cl)c(F)c3)c(=O)c2)n1 (stereo unspecified) + CC(Nc1ncnc2nc[nH]c12)c1cc2cccc(Cl)c2c(=O)n1-c1ccccc1
IC50 (second compound 0.0316 µM): 7.98 µM | IC50 (second compound 0.1 µM): 5.28 µM | IC50 (second compound 0.316 µM): 7.48 µM | IC50 (second compound 1 µM): 4.18 µM | IC50 (second compound 3.16 µM): 0.764 µM | IC50 (second compound 10 µM): < 0.0316 µM | viability, T/C [1]: 100% | viability, T/C [2]: 90.3% | viability, T/C [3]: 72.5% | viability, T/C [4]: 67.4% | viability, T/C [5]: 66.5% | viability, T/C [6]: 43.5% | viability, T/C [7]: 87.3% | viability, T/C [8]: 86.8% | viability, T/C [9]: 70.1% | viability, T/C [10]: 62.6% | viability, T/C [11]: 65.3% | viability, T/C [12]: 38.6% | viability, T/C [13]: 88.4% | viability, T/C [14]: 71.2% | viability, T/C [15]: 71.2% | viability, T/C [16]: 66.8% | viability, T/C [17]: 64% | viability, T/C [18]: 44% | viability, T/C [19]: 77.9% | viability, T/C [20]: 74.6% | viability, T/C [21]: 64.5% | viability, T/C [22]: 61% | viability, T/C [23]: 52% | viability, T/C [24]: 43.6% | viability, T/C [25]: 63.7% | viability, T/C [26]: 69.5% | viability, T/C [27]: 50% | viability, T/C [28]: 50.3% | viability, T/C [29]: 37.2% | viability, T/C [30]: 24.9% | viability, T/C [31]: 46.7% | viability, T/C [32]: 40.9% | viability, T/C [33]: 35.7% | viability, T/C [34]: 31.4% | viability, T/C [35]: 29.5% | viability, T/C [36]: 22.2%
